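All cell lines were grown in 96-well plates and treated with compound for 48 hours. GI50 marks 50% less growth.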 Active and inactive are the calls of the source. Cut-off read from the data, not from the text of the source: active = GI50 up to about 1.1 µM and inactive = higher.
Columns and labels:
Assay in all cases: DTP human tumour cell line panel, 48 h
CCRF-CEM = test system: CCRF-CEM
SNB-75 = test system: SNB-75
SNB-19 = test system: SNB-19
MDA-N = test system: MDA-N
T47D = test system: T47D
HCT-116 = test system: HCT-116
MDA-MB-231 = test system: MDA-MB-231
MOLT-4 = test system: MOLT-4
LOX IMVI = test system: LOX IMVI
UACC-257 = test system: UACC-257
RPMI-8226 = test system: RPMI-8226
UO-31 = test system: UO-31
A549 = test system: A549
NCI/ADR-RES = test system: NCI/ADR-RES
OVCAR-8 = test system: OVCAR-8
SN12C = test system: SN12C
BT-549 = test system: BT-549
HT-29 = test system: HT-29
U-251 = test system: U-251

SMILES | GI50 (CCRF-CEM) | GI50 (SNB-75) | GI50 (SNB-19) | GI50 (MDA-N) | GI50 (T47D) | GI50 (HCT-116) | GI50 (MDA-MB-231) | GI50 (MOLT-4) | GI50 (LOX IMVI) | GI50 (UACC-257) | GI50 (RPMI-8226) | GI50 (UO-31) | GI50 (A549) | GI50 (NCI/ADR-RES) | GI50 (OVCAR-8) | GI50 (SN12C) | GI50 (BT-549) | GI50 (HT-29) | GI50 (U-251)
COC(=O)CN(CC(O)C(NC(C)=O)C(O)C=O)C(=O)OCc1ccccc1 (centres undefined) | > 100 µM (inactive) | > 100 µM (inactive) | > 100 µM (inactive) | > 100 µM (inactive) | > 100 µM (inactive) | > 100 µM (inactive) | > 100 µM (inactive) | > 100 µM (inactive) | > 100 µM (inactive) | > 100 µM (inactive) | > 100 µM (inactive) | > 100 µM (inactive) | > 100 µM (inactive) | > 100 µM (inactive) | > 100 µM (inactive) | > 100 µM (inactive) | > 100 µM (inactive) | > 100 µM (inactive) | > 100 µM (inactive)
O=[N+]([O-])c1cccc2nc3ccccc3c(NCCC[N+]3([O-])CCCCC3)c12 | 0.546 µM (active) | 0.416 µM (active) | 0.638 µM (active) | 0.176 µM (active) | 0.41 µM (active) | 0.261 µM (active) | 0.351 µM (active) | 0.198 µM (active) | 0.46 µM (active) | 0.244 µM (active) | 0.308 µM (active) | 12.9 µM (inactive) | 0.521 µM (active) | > 100 µM (inactive) | 1.85 µM (inactive) | 0.39 µM (active) | 0.501 µM (active) | 0.301 µM (active) | 0.289 µM (active)
CN1CCN(c2ccc3nc(C4=C(O)C(=O)c5c(nc(CCl)n5C)C4=O)[nH]c3n2)CC1 | > 50 µM (inactive) | 3.72 µM (inactive) | 8.95 µM (inactive) | 9.75 µM (inactive) | 0.796 µM (active) | 8.85 µM (inactive) | 10.9 µM (inactive) | 21.8 µM (inactive) | 8.15 µM (inactive) | 12.4 µM (inactive) | 26 µM (inactive) | 2.47 µM (inactive) | 30 µM (inactive) | > 50 µM (inactive) | 8.05 µM (inactive) | 9.98 µM (inactive) | 9.79 µM (inactive) | 11.6 µM (inactive) | 8.77 µM (inactive)
O=c1c2c3c(sc2nc2n1N=CN(c1ccc(Cl)cc1)C2)CCCC3 | 17 µM (inactive) | 24.7 µM (inactive) | > 100 µM (inactive) | 56.6 µM (inactive) | 2.21 µM (inactive) | 26.9 µM (inactive) | 16.7 µM (inactive) | 17.9 µM (inactive) | 36.3 µM (inactive) | 55.7 µM (inactive) | 46.8 µM (inactive) | > 100 µM (inactive) | 38.4 µM (inactive) | 74.8 µM (inactive) | 83.8 µM (inactive) | > 100 µM (inactive) | > 100 µM (inactive) | 19.5 µM (inactive) | 54.1 µM (inactive)
NCCNc1nc(N2CCCC2)c2nc(Cl)c(NCc3ccccc3)nc2n1 | 2.42 µM (inactive) | 1.72 µM (inactive) | 1.83 µM (inactive) | 1.67 µM (inactive) | 1.66 µM (inactive) | 1.49 µM (inactive) | 1.33 µM (inactive) | 2.13 µM (inactive) | 1.56 µM (inactive) | 1.9 µM (inactive) | 1.88 µM (inactive) | 1.73 µM (inactive) | 1.71 µM (inactive) | 13.6 µM (inactive) | 1.76 µM (inactive) | 1.52 µM (inactive) | 1.98 µM (inactive) | 1.95 µM (inactive) | 1.63 µM (inactive)
N#Cc1cc2c(n(C3OC(CO)C(O)C(O)C3O)c1=S)CCCCCC2 (centres undefined) | > 100 µM (inactive) | > 100 µM (inactive) | > 100 µM (inactive) | > 100 µM (inactive) | 80.2 µM (inactive) | > 100 µM (inactive) | > 100 µM (inactive) | > 100 µM (inactive) | > 100 µM (inactive) | > 100 µM (inactive) | > 100 µM (inactive) | > 100 µM (inactive) | > 100 µM (inactive) | > 100 µM (inactive) | > 100 µM (inactive) | > 100 µM (inactive) | > 100 µM (inactive) | > 100 µM (inactive) | > 100 µM (inactive)
Fc1ccc(C(OCCN2CCC3CCC(C2)N3C/C=C/c2cccnc2)c2ccc(F)cc2)cc1 (centres undefined) | 4.11 µM (inactive) | 14.2 µM (inactive) | 15.2 µM (inactive) | 11.6 µM (inactive) | 12.6 µM (inactive) | 5.93 µM (inactive) | 13.3 µM (inactive) | 2.48 µM (inactive) | 13.1 µM (inactive) | 3.78 µM (inactive) | 3.43 µM (inactive) | 1.88 µM (inactive) | 11.8 µM (inactive) | 11.3 µM (inactive) | 13 µM (inactive) | 13.1 µM (inactive) | 13.6 µM (inactive) | 3.44 µM (inactive) | 11.9 µM (inactive)
c1ccc([P+](c2ccccc2)(c2ccccc2)C2c3ccccc3-c3ccccc32)cc1 | 1.89 µM (inactive) | 2.45 µM (inactive) | 2.79 µM (inactive) | 0.895 µM (active) | 2.71 µM (inactive) | 0.473 µM (active) | 2.52 µM (inactive) | 1.67 µM (inactive) | 1.32 µM (inactive) | 2.31 µM (inactive) | 1.35 µM (inactive) | 2.67 µM (inactive) | 2.88 µM (inactive) | 15.3 µM (inactive) | 2.81 µM (inactive) | 2.36 µM (inactive) | 2.94 µM (inactive) | 0.74 µM (active) | 1.57 µM (inactive)
COC1(c2cccs2)c2ccccc2C(OC)(c2cccs2)c2ccccc21 (centres undefined) | > 100 µM (inactive) | 59.8 µM (inactive) | 42.8 µM (inactive) | > 100 µM (inactive) | 85.7 µM (inactive) | 17.4 µM (inactive) | 26.4 µM (inactive) | 16.7 µM (inactive) | > 100 µM (inactive) | > 100 µM (inactive) | 63.2 µM (inactive) | > 100 µM (inactive) | 94.8 µM (inactive) | 92.7 µM (inactive) | > 100 µM (inactive) | > 100 µM (inactive) | 78.5 µM (inactive) | 50.8 µM (inactive) | 42.4 µM (inactive)
CC(CCC(=O)O)(c1cc(Br)c(O)c(Br)c1)c1cc(Br)c(O)c(Br)c1 | < 0.01 µM (active) | 55.7 µM (inactive) | 57.9 µM (inactive) | 70 µM (inactive) | 29.9 µM (inactive) | 50.4 µM (inactive) | 94.8 µM (inactive) | 48.3 µM (inactive) | 45.5 µM (inactive) | 76 µM (inactive) | 48.8 µM (inactive) | 66.7 µM (inactive) | > 100 µM (inactive) | 83.8 µM (inactive) | 78.2 µM (inactive) | > 100 µM (inactive) | 38.4 µM (inactive) | 93.1 µM (inactive) | 48.9 µM (inactive)
Cc1nnc2cc(C(=O)O)c3ccccc3n2c1=O | > 10 µM (inactive) | 2.55 µM (inactive) | > 10 µM (inactive) | > 10 µM (inactive) | > 10 µM (inactive) | > 10 µM (inactive) | > 10 µM (inactive) | > 10 µM (inactive) | > 10 µM (inactive) | > 10 µM (inactive) | > 10 µM (inactive) | > 10 µM (inactive) | > 10 µM (inactive) | > 10 µM (inactive) | > 10 µM (inactive) | > 10 µM (inactive) | > 10 µM (inactive) | > 10 µM (inactive) | > 10 µM (inactive)
